Laboratory results reported in publication PMC12298624, “Anti-Infective Properties, Cytotoxicity, and In Silico ADME Parameters of Novel 4′-(Piperazin-1-yl)benzanilides” (Pharmaceuticals, 2025).
Where two headings read alike, the source gives them in different places.

Assays:
P. falciparum NF54 [1] = test system: P. falciparum NF54; parameters: method as in PMID 34832891, PMID 36558954; conditions: Figure 1, earlier studies; ref [12],[13]; read-out: PfNF54 IC50; cited from earlier work
P. falciparum NF54 [2] = test: In vitro microplate assay against P. falciparum NF54 (3H-hypoxanthine incorporation); format: cell-based, Plasmodium falciparum; conditions: chloroquine-sensitive strain NF54, erythrocytic stages; read-out: P.f.NF54 IC50
Procedure, shortened: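 Parasites exposed to eleven 3-fold drug dilutions spanning 100 to 0.002 µg/mL for 48 h, then ^3H-hypoxanthine (0.5 µCi/well) added for a further 24 h. Incorporated radioactivity counted by liquid scintillation after harvesting onto glass fiber filters. IC50 from sigmoidal inhibition curves by linear regression.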

L-6 cells = test: Resazurin-based in vitro cytotoxicity with L-6 cells; format: cell-based, rat
Procedure, shortened: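 Compounds tested in eleven 3-fold serial dilutions from 100 to 0.002 µg/mL over 70 h incubation. IC50 obtained by linear regression from sigmoidal dose–inhibition curves.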

HepG2 cells = test: Resazurin-based in vitro cytotoxicity with HepG2 cells; format: cell-based, human
Procedure, shortened: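 HepG2 cells, 5000 per well in DMEM with 1% FBS, exposed 48 h at 37° C to ten 3-fold dilutions (100.0–0.005 µM). Then 50 µM resazurin for 3 h, fluorescence read at 555/570 nm, IC50 calculated; doxorubicin as control.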

Molecule	IC50 (P. falciparum NF54 [1])	IC50 (P. falciparum NF54 [2])	IC50 (L-6 cells)	IC50 (HepG2 cells)
CC(C)(C)OC(=O)N1CCN(c2ccc(NC(=O)c3cccc(C(F)(F)F)c3Sc3ccc(F)cc3)cc2)CC1 [derivate III]	150 nM			
2-(4-Fluorophenoxy)-N-[4-(pyrrolidin-4-yl)phenyl]-3-(trifluoromethyl)benzamide [Compound 34]		1680 nM	185 µM	39.8 µM
CC(C)(C)OC(=O)N1CCN(c2ccc(NC(=O)c3cccc(C(F)(F)F)c3Oc3ccc(F)cc3)cc2)CC1 [derivate I]	270 nM			
CC(C)(C)C(=O)N1CCN(c2ccc(NC(=O)c3cccc(C(F)(F)F)c3Oc3ccc(F)cc3)cc2)CC1 [derivate II]	580 nM			
